Assay results from PubChem BioAssay AID2060498 (Molecular Pharmacology Branch, DTP, NCI, 2025).

Tested on: 171881-019-R-J1-PDC tumor spheroids, viability
Assay: Anticancer human tumor 171881-019-R-J1-PDC patient-derived invasive breast carcinoma cell line growth inhibition [GQUAD]
Conditions: spheroids with HUVEC and MSC; for IC50: curve of first compound; for viability, T/C: stronger effect = lower value; active = viability on the fitted dose curve at most 10% of control; inactive = the rest
How it was run: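 Tumor cells were grown as complex spheroids with HUVEC endothelial cells and mesenchymal stem cells as stroma. G-quadruplex stabilizers were combined with targeted agents over half-log dilutions from near the clinical Cmax, or from 10 microM.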

[1] = second compound 0.0316 µM, first compound 0.0316 µM
[2] = second compound 0.0316 µM, first compound 0.1 µM
[3] = second compound 0.0316 µM, first compound 0.316 µM
[4] = second compound 0.0316 µM, first compound 1 µM
[5] = second compound 0.0316 µM, first compound 3.16 µM
[6] = second compound 0.0316 µM, first compound 10 µM
[7] = second compound 0.1 µM, first compound 0.0316 µM
[8] = second compound 0.1 µM, first compound 0.1 µM
[9] = second compound 0.1 µM, first compound 0.316 µM
[10] = second compound 0.1 µM, first compound 1 µM
[11] = second compound 0.1 µM, first compound 3.16 µM
[12] = second compound 0.1 µM, first compound 10 µM
[13] = second compound 0.316 µM, first compound 0.0316 µM
[14] = second compound 0.316 µM, first compound 0.1 µM
[15] = second compound 0.316 µM, first compound 0.316 µM
[16] = second compound 0.316 µM, first compound 1 µM
[17] = second compound 0.316 µM, first compound 3.16 µM
[18] = second compound 0.316 µM, first compound 10 µM
[19] = second compound 1 µM, first compound 0.0316 µM
[20] = second compound 1 µM, first compound 0.1 µM
[21] = second compound 1 µM, first compound 0.316 µM
[22] = second compound 1 µM, first compound 1 µM
[23] = second compound 1 µM, first compound 3.16 µM
[24] = second compound 1 µM, first compound 10 µM
[25] = second compound 3.16 µM, first compound 0.0316 µM
[26] = second compound 3.16 µM, first compound 0.1 µM
[27] = second compound 3.16 µM, first compound 0.316 µM
[28] = second compound 3.16 µM, first compound 1 µM
[29] = second compound 3.16 µM, first compound 3.16 µM
[30] = second compound 3.16 µM, first compound 10 µM
[31] = second compound 10 µM, first compound 0.0316 µM
[32] = second compound 10 µM, first compound 0.1 µM
[33] = second compound 10 µM, first compound 0.316 µM
[34] = second compound 10 µM, first compound 1 µM
[35] = second compound 10 µM, first compound 3.16 µM
[36] = second compound 10 µM, first compound 10 µM
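Also: spheroids exposed to compounds for 7 days.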
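For viability, T/C in this document: 100% = DMSO vehicle control viability.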

CC1COCCN1c1cc(-c2ccnn2C)c2ccnc(-c3ccn[nH]3)c2n1 (stereo not given) + CN(C)c1ccc(Nc2c3ccc(NC(=O)CCN4CCCC4)cc3nc3cc(NC(=O)CCN4CCCC4)ccc23)cc1
51.9 nM: IC50 (second compound 0.1 µM)
inactive: viability, T/C [1] 76.9% | viability, T/C [2] 34.1% | viability, T/C [3] 12.4% | viability, T/C [7] 64.8% | viability, T/C [8] 30.4% | viability, T/C [9] 11.6% | viability, T/C [13] 55.2% | viability, T/C [14] 31.6% | viability, T/C [15] 10.3% | viability, T/C [19] 20.7%
active: viability, T/C [4] 5.31% | viability, T/C [5] 1.79% | viability, T/C [6] 1.42% | viability, T/C [10] 5.34% | viability, T/C [11] 1.93% | viability, T/C [12] 1.63% | viability, T/C [16] 3.25% | viability, T/C [17] 1.4% | viability, T/C [18] 1.07% | viability, T/C [20] 8.28% | viability, T/C [21] 4.88% | viability, T/C [22] 1.45% | viability, T/C [23] 0.66% | viability, T/C [24] 0.48% | viability, T/C [25] 1.59% | viability, T/C [26] 1.01% | viability, T/C [27] 0.89% | viability, T/C [28] 0.34% | viability, T/C [29] 0.71% | viability, T/C [30] 0.14% | viability, T/C [31] 0.16% | viability, T/C [32] 0.3% | viability, T/C [33] 0.33% | viability, T/C [34] 0.32% | viability, T/C [35] 0.43% | viability, T/C [36] 0.14%
40.8 nM: IC50 (second compound 0.316 µM)
65.2 nM: IC50 (second compound 0.0316 µM)
< 31.6 nM: IC50 (second compound 1 µM) | IC50 (second compound 3.16 µM) | IC50 (second compound 10 µM)

CC1COCCN1c1cc(C2(O)CC3CCC(C2)O3)c2cnn(-c3ccn[nH]3)c2n1 (stereo not given) + CN(C)c1ccc(Nc2c3ccc(NC(=O)CCN4CCCC4)cc3nc3cc(NC(=O)CCN4CCCC4)ccc23)cc1
< 31.6 nM: IC50 (second compound 0.0316 µM) | IC50 (second compound 0.1 µM) | IC50 (second compound 0.316 µM) | IC50 (second compound 1 µM) | IC50 (second compound 3.16 µM) | IC50 (second compound 10 µM)
inactive: viability, T/C [1] 48% | viability, T/C [2] 16.6% | viability, T/C [7] 47.5% | viability, T/C [8] 15.7% | viability, T/C [13] 41.9% | viability, T/C [14] 13.6% | viability, T/C [19] 12.1%
active: viability, T/C [3] 5.6% | viability, T/C [4] 1.83% | viability, T/C [5] 1.12% | viability, T/C [6] 0.76% | viability, T/C [9] 5.27% | viability, T/C [10] 1.88% | viability, T/C [11] 1.2% | viability, T/C [12] 1.32% | viability, T/C [15] 4.24% | viability, T/C [16] 1.41% | viability, T/C [17] 1.02% | viability, T/C [18] 0.73% | viability, T/C [20] 4.72% | viability, T/C [21] 2.23% | viability, T/C [22] 0.4% | viability, T/C [23] 0.33% | viability, T/C [24] 0.3% | viability, T/C [25] 1.34% | viability, T/C [26] 0.9% | viability, T/C [27] 0.41% | viability, T/C [28] 0.14% | viability, T/C [29] 0.16% | viability, T/C [30] 0.2% | viability, T/C [31] 0.14% | viability, T/C [32] 0.25% | viability, T/C [33] 0.42% | viability, T/C [34] 0.25% | viability, T/C [35] 0.16% | viability, T/C [36] 0.14%

CC1COCCN1c1cc(C2(S(C)(=N)=O)CC2)nc(-c2ccnc3[nH]ccc23)n1 (stereo not given) + CN(C)c1ccc(Nc2c3ccc(NC(=O)CCN4CCCC4)cc3nc3cc(NC(=O)CCN4CCCC4)ccc23)cc1
1370 nM: IC50 (second compound 0.0316 µM)
active: viability, T/C [6] 6.43% | viability, T/C [12] 6.7% | viability, T/C [18] 4.97% | viability, T/C [23] 7.12% | viability, T/C [24] 2.2% | viability, T/C [25] 1.87% | viability, T/C [26] 1.5% | viability, T/C [27] 1.71% | viability, T/C [28] 0.99% | viability, T/C [29] 0.76% | viability, T/C [30] 0.35% | viability, T/C [31] 0.19% | viability, T/C [32] 0.55% | viability, T/C [33] 0.48% | viability, T/C [34] 0.52% | viability, T/C [35] 0.54% | viability, T/C [36] 0.25%
1190 nM: IC50 (second compound 0.1 µM)
inactive: viability, T/C [1] 97.3% | viability, T/C [2] 109% | viability, T/C [3] 99.8% | viability, T/C [4] 62.6% | viability, T/C [5] 15.8% | viability, T/C [7] 98.9% | viability, T/C [8] 99.1% | viability, T/C [9] 81% | viability, T/C [10] 59.1% | viability, T/C [11] 16.8% | viability, T/C [13] 77.7% | viability, T/C [14] 88% | viability, T/C [15] 63% | viability, T/C [16] 41.6% | viability, T/C [17] 16.7% | viability, T/C [19] 26% | viability, T/C [20] 13.1% | viability, T/C [21] 20.5% | viability, T/C [22] 11.9%
667 nM: IC50 (second compound 0.316 µM)
< 31.6 nM: IC50 (second compound 1 µM) | IC50 (second compound 3.16 µM) | IC50 (second compound 10 µM)

COc1ccc([C@@H](O)c2cc(-c3ncnc4cc(N5CCOCC5)ccc34)c(F)cc2Cl)nn1 + CN(C)c1ccc(Nc2c3ccc(NC(=O)CCN4CCCC4)cc3nc3cc(NC(=O)CCN4CCCC4)ccc23)cc1
< 31.6 nM: IC50 (second compound 1 µM) | IC50 (second compound 3.16 µM) | IC50 (second compound 10 µM)
active: viability, T/C [6] 1.57% | viability, T/C [12] 1.52% | viability, T/C [17] 4.99% | viability, T/C [18] 0.9% | viability, T/C [22] 4.62% | viability, T/C [23] 1.37% | viability, T/C [24] 0.46% | viability, T/C [25] 1.64% | viability, T/C [26] 2.1% | viability, T/C [27] 1.49% | viability, T/C [28] 0.45% | viability, T/C [29] 0.38% | viability, T/C [30] 0.23% | viability, T/C [31] 0.4% | viability, T/C [32] 0.57% | viability, T/C [33] 0.32% | viability, T/C [34] 0.19% | viability, T/C [35] 0.14% | viability, T/C [36] 0.38%
335 nM: IC50 (second compound 0.316 µM)
inactive: viability, T/C [1] 97.2% | viability, T/C [2] 85.8% | viability, T/C [3] 62.5% | viability, T/C [4] 37.6% | viability, T/C [5] 7.36% | viability, T/C [7] 94.5% | viability, T/C [8] 87% | viability, T/C [9] 64.2% | viability, T/C [10] 37.5% | viability, T/C [11] 7.17% | viability, T/C [13] 79.3% | viability, T/C [14] 72.5% | viability, T/C [15] 52.2% | viability, T/C [16] 18.2% | viability, T/C [19] 27.1% | viability, T/C [20] 17.4% | viability, T/C [21] 18.6%
570 nM: IC50 (second compound 0.1 µM)
544 nM: IC50 (second compound 0.0316 µM)

O=C(c1cc(Cc2n[nH]c(=O)c3ccccc23)ccc1F)N1CCN(C(=O)C2CC2)CC1 + CN(C)c1ccc(Nc2c3ccc(NC(=O)CCN4CCCC4)cc3nc3cc(NC(=O)CCN4CCCC4)ccc23)cc1
< 31.6 nM: IC50 (second compound 1 µM) | IC50 (second compound 3.16 µM) | IC50 (second compound 10 µM)
> 10000 nM: IC50 (second compound 0.0316 µM) | IC50 (second compound 0.1 µM) | IC50 (second compound 0.316 µM)
active: viability, T/C [25] 1.55% | viability, T/C [26] 1.44% | viability, T/C [27] 1.96% | viability, T/C [28] 1.41% | viability, T/C [29] 1.97% | viability, T/C [30] 1.2% | viability, T/C [31] 0.28% | viability, T/C [32] 0.36% | viability, T/C [33] 0.35% | viability, T/C [34] 0.57% | viability, T/C [35] 0.69% | viability, T/C [36] 0.32%
inactive: viability, T/C [1] 98.5% | viability, T/C [2] 98.5% | viability, T/C [3] 107% | viability, T/C [4] 96.3% | viability, T/C [5] 90.7% | viability, T/C [6] 94.2% | viability, T/C [7] 107% | viability, T/C [8] 95.4% | viability, T/C [9] 91.1% | viability, T/C [10] 109% | viability, T/C [11] 91.7% | viability, T/C [12] 86.3% | viability, T/C [13] 86.5% | viability, T/C [14] 94.1% | viability, T/C [15] 80.3% | viability, T/C [16] 78.5% | viability, T/C [17] 82% | viability, T/C [18] 60.8% | viability, T/C [19] 31.7% | viability, T/C [20] 19.5% | viability, T/C [21] 25.3% | viability, T/C [22] 18.4% | viability, T/C [23] 20.2% | viability, T/C [24] 17.3%
